EC50 data for 24 compounds are collected here from patent US20240124408A1 (Sanofi, priority 2020, published 2024).

The target of one assay is T1, human TRPM8 (Homo sapiens, UniProt Q7Z2W7).
T1 construct: expressed in transfected cells; host or cells: CHO (p658 mammalian expression vector)
In words: In vitro human TRPM8 fluorescence calcium flux assay (recombinant CHO cells, Fluo4-AM, FDSS6000). The assay is classed as cell-based. The settings on record: recombinant CHO cells expressing human TRPM8; menthol-related EC50, normalized to 100 μM menthol. Here is the method: (§1) In Vitro Pig and Human TRPM8 Fluorescence Calcium Flux Assays
(§2) For functional expression of TRPM8, the full-length cDNA encoding human (NM_024080) and pig (XM_001927892.1) TRPM8 sequences were subcloned into p658 and pcDNA5/FRT/TO mammalian expression vectors, respectively. Engineered recombinant CHO cell lines expressing human or pig TRPM8 were generated. Culture media was Ham-F12 with 10% FCS for both lines, and for the pig cell line only 400 μg/ml hygromycin B and 30 μg/mL blasticidin were added as selection antibiotics (all reagents were obtained from Invitrogen, Fisher Scientific). Cells were grown in culture flasks up to 80% confluence where they were harvested using accutase (Sigma, MO, USA) to detach the cells by enzymatic dissociation and either seeded directly into assay plates or cryopreserved for future use.
(§3) For calcium flux assays, cells were plated into clear base poly-D-lysine coated 384-well plates (BD Biosciences, NJ USA) at a density of 15,000 cells per well in appropriate culture medium and grown overnight. The following day, all medium was removed then the cells were incubated with 2 μM of Fluo4-AM Dye (Molecular Probes) prepared in complete HBSS assay buffer containing 20 mM HEPES, 0.1% BSA, and 2.5 mM probenecid at room temperature for one hour. Following incubation, plates were inserted into a FDSS6000 instrument (Hamamatsu, Photonics, Japan) instrument, where cells were challenged with compounds of the formula (at varying concentrations) and intracellular calcium was measured kinetically for 3 min after addition.
(§4) This protocol allowed the determination of an EC50 value, from the sixteen-point dose response data, for each compound of the formula tested. Maximal fluorescence intensity achieved upon addition of 100 μM menthol (stock solution prepared in ethanol from solid, Sigma-Aldrich) was exported from the FDSS and further analyzed using IDBS XLFit 5. Data were normalized to the average 100 μM menthol response (maximum control wells) included in each plate. The dose response curves from the average of wells for each data point were analyzed by using nonlinear regression of sigmoidal dose response (formula 205). Finally, the (menthol-related) EC50 values (Half maximal effective concentration) were calculated with the best-fit dose curve determined by IDBS XLFit 5 software.
For orientation: A change in cytosolic calcium serves as a functional read-out for many receptors and channels.

The next assay deals with T2, pig TRPM8 (Sus scrofa, UniProt F1SM15).
T2 construct: expressed in transfected cells; host or cells: CHO (pcDNA5/FRT/TO vector; hygromycin B and blasticidin selection)
T2 sequence (F1SM15 1-1104): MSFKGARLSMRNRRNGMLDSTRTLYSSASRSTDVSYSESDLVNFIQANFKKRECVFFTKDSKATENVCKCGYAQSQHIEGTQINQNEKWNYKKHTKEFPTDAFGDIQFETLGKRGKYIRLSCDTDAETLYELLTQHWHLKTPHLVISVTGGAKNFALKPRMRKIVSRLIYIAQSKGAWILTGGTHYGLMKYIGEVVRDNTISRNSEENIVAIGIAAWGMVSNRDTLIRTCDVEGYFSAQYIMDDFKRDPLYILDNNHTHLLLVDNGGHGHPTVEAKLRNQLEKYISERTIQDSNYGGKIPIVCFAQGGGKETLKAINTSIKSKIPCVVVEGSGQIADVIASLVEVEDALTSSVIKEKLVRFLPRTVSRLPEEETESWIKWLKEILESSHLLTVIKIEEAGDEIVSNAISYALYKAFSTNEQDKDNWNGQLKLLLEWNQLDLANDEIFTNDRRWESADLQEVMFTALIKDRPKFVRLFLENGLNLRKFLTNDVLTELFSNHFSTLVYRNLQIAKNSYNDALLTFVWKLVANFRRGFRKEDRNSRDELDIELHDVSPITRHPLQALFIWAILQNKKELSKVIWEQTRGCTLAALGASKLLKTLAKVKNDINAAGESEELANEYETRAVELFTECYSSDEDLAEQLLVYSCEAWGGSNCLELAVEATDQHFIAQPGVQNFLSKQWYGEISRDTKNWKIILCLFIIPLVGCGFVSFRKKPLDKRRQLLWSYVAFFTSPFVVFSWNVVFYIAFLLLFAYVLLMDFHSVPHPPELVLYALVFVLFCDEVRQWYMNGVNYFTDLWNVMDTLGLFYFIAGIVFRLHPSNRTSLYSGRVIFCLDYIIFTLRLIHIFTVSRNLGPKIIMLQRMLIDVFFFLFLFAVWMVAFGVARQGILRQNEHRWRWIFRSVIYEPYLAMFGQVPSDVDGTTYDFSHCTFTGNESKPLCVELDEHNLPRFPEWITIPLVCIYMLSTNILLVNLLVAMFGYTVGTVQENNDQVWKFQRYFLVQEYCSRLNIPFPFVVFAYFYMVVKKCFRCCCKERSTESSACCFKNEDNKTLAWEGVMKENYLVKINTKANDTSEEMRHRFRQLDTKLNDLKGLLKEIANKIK
In words: In vitro pig TRPM8 fluorescence calcium flux assay (recombinant CHO cells, Fluo4-AM, FDSS6000). The settings on record: recombinant CHO cells expressing pig TRPM8; menthol-related EC50, normalized to 100 μM menthol. The assay is classed as cell-based. Here is the method:
as §1, §2, §3, §4

T1 sequence (Q7Z2W7 whole entry): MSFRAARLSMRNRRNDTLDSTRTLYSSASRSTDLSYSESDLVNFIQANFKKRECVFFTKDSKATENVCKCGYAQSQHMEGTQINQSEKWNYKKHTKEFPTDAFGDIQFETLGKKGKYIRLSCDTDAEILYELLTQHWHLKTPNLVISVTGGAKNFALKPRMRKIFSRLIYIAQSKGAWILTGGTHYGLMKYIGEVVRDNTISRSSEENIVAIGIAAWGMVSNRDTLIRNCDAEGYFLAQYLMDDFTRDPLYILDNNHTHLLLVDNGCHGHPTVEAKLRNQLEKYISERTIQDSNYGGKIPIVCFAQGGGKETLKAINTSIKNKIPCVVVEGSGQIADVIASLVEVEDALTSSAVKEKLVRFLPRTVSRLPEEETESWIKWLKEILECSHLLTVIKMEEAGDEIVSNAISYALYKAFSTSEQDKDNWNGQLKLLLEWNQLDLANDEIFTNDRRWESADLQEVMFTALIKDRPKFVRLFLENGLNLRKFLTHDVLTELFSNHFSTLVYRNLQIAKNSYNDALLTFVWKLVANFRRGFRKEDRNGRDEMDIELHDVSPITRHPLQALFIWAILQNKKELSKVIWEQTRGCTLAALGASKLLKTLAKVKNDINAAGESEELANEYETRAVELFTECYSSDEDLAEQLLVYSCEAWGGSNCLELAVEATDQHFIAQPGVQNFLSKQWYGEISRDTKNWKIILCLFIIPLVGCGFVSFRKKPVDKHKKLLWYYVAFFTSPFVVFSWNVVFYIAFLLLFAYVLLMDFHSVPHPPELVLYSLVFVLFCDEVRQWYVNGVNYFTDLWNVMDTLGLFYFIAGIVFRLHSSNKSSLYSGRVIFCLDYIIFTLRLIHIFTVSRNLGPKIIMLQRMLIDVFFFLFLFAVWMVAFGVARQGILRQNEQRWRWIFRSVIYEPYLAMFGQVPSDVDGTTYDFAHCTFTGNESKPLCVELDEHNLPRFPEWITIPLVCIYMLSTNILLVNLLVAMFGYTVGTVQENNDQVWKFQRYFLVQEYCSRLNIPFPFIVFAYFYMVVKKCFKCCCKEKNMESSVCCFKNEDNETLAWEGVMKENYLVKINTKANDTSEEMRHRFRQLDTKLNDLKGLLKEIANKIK

In general, EC50 refers to the concentration at which the effect is half-maximal. Turning to `COc1ccc2c(c1)OCC2CNC(=O)[C@]1(O)C[C@H](C)CC[C@H]1C(C)C` (stereo partly drawn) [Example 154, (1S,2S,5R)-1-hydroxy-2-isopropyl-N-[(6-methoxy-2,3-dihydrobenzofuran-3-yl)methyl]-5-methyl-cyclohexanecarboxamide], the results for the EC50 at human TRPM8 and at pig TRPM8 were 85 nM and 46 nM, respectively.
For `CC(C)[C@@H]1CC[C@@H](C)C[C@@]1(O)C(=O)NCC1(c2cccc(COC3CCCCO3)c2)COC1` (stereo partly drawn) [Example 101, (1S,2S,5R)-1-hydroxy-2-isopropyl-5-methyl-N-((3-(3-(((tetrahydro-2H-pyran-2-yl)oxy)methyl)phenyl)oxetan-3-yl)methyl)cyclohexane-1-carboxamide] the same measures were 376 nM and 174 nM.
The matching figures for `COc1cc(CCNC(=O)[C@]2(O)C[C@H](C)CC[C@H]2C(C)C)ccc1O` [Example 114, (1S,2S,5R)-1-hydroxy-N-[2-(4-hydroxy-3-methoxy-phenyl)ethyl]-2-isopropyl-5-methyl-cyclohexanecarboxamide]: 59.8 nM and 28.2 nM.
As for `CC(C)[C@@H]1CC[C@@H](C)C[C@@]1(O)C(=O)NCCc1ccc(O)cc1O` [Example 173, (1S,2S,5R)-N-[2-(2,4-dihydroxyphenyl)ethyl]-1-hydroxy-2-isopropyl-5-methyl-cyclohexanecarboxamide], the EC50 at human TRPM8 amounted to 24.6 nM; on pig TRPM8 it was 21.7 nM.
For `CC(C)[C@@H]1CC[C@@H](C)C[C@@]1(O)C(=O)NCC(=O)c1c[nH]c2ccccc12` [Example 150, (1S,2S,5R)-1-hydroxy-N-[2-(1H-indol-3-yl)-2-oxo-ethyl]-2-isopropyl-5-methyl-cyclohexanecarboxamide] the same measures were 4 nM and 4 nM.
For `Cc1oc(=O)oc1COC(=O)c1cccc(CCNC(=O)[C@]2(O)C[C@H](C)CC[C@H]2C(C)C)c1` [Example 29, (5-methyl-2-oxo-1,3-dioxol-4-yl)methyl 3-(2-((1S,2S,5R)-1-hydroxy-2-isopropyl-5-methylcyclohexane-1-carboxamido)ethy) benzoate] the same measures were 211 nM and 221 nM.
The matching figures for `CC(C)[C@@H]1CC[C@@H](C)C[C@@]1(O)C(=O)NCCc1nc2ccccc2[nH]1` [Example 8, (1S,2S,5R)—N-(2-(1H-benzo[d]imidazol-2-yl)ethyl)-1-hydroxy-2-isopropyl-5-methylcyclohexane-1-carboxamide 2-hydroxypropane-1,2,3-tricarboxylate]: 1510 nM and 713 nM.
In the case of `CC(C)[C@@H]1CC[C@@H](C)C[C@@]1(O)C(=O)N[C@H]1COc2ccccc2C1` [Example 95, (1S,2S,5R)—N-((3R)-chroman-3-yl)-1-hydroxy-2-isopropyl-5-methylcyclohexane-1-carboxamide], the EC50 on human TRPM8 came to 3.6 nM; at pig TRPM8, 3.1 nM.
The matching figures for `CC(C)[C@@H]1CC[C@@H](C)C[C@@]1(O)C(=O)NCC(=O)Oc1cc(O)cc(O)c1` [Example 76, 3,5-dihydroxyphenyl ((1S,2S,5R)-1-hydroxy-2-isopropyl-5-methylcyclohexane-1-carbonyl)glycinate]: 501 nM and 365 nM.
For `COc1cccc(CCNC(=O)[C@]2(O)C[C@H](C)CC[C@H]2C(C)C)c1OC` [Example 115, (1S,2S,5R)-N-[2-(2,3-dimethoxyphenyl)ethyl]-1-hydroxy-2-isopropyl-5-methyl-cyclohexanecarboxamide], the EC50 at human TRPM8 turned out to be 786 nM; at pig TRPM8, 362 nM.
The matching figures for `CC(C)[C@@H]1CC[C@@H](C)C[C@@]1(O)C(=O)N[C@@H](C)CCc1ccc(O)cc1` [Example 168, (1S,2S,5R)-1-hydroxy-N-[(1S)-3-(4-hydroxyphenyl)-1-methyl-propyl]-2-isopropyl-5-methyl-cyclohexanecarboxamide]: 334 nM and 343 nM.
For `COc1cccc(C(F)(F)CNC(=O)[C@]2(O)C[C@H](C)CC[C@H]2C(C)C)c1` [Example 188, (1S,2S,5R)—N-[2,2-difluoro-2-(3-methoxyphenyl)ethyl]-1-hydroxy-2-isopropyl-5-methyl-cyclohexanecarboxamide] the same measures were 76.2 nM and 24.1 nM.
The matching figures for `CC(C)[C@@H]1CC[C@@H](C)C[C@@]1(O)C(=O)NCCc1c[nH]c2ccc(O)cc12` [Example 169, (1S,2S,5R)-1-hydroxy-N-[2-(5-hydroxy-1H-indol-3-yl)ethyl]-2-isopropyl-5-methyl-cyclohexanecarboxamide]: 20.9 nM and 27.4 nM.
For `Cc1ccccc1CCNC(=O)[C@]1(O)C[C@H](C)CC[C@H]1C(C)C` [Example 59, (1S,2S,5R)-1-hydroxy-2-isopropyl-5-methyl-N-(2-methylphenethyl)cyclohexane-1-carboxamide], the results for the EC50 at human TRPM8 and at pig TRPM8 were 6.2 nM and 4.3 nM, respectively.
As to `CC(C)[C@@H]1CC[C@@H](C)C[C@@]1(O)C(=O)NC(CCO)c1cccc(O)c1` (stereo partly drawn) [Example 163, (1S,2S,5R)-1-hydroxy-N-[3-hydroxy-1-(3-hydroxyphenyl)propyl]-2-isopropyl-5-methyl-cyclohexanecarboxamide], the EC50 on human TRPM8 was found to be 658 nM; on pig TRPM8, 940 nM.
The matching figures for `COC(=O)Cc1ccccc1CCNC(=O)[C@]1(O)C[C@H](C)CC[C@H]1C(C)C` [Example 77, methyl 2-(2-(2-((1S,2S,5R)-1-hydroxy-2-isopropyl-5-methylcyclohexane-1-carboxamido)ethyl)phenyl)acetate]: 90 nM and 93 nM.
The matching figures for `CC(C)[C@@H]1CC[C@@H](C)C[C@@]1(O)C(=O)N[C@@H](CO)Cc1ccccc1` [Example 47, (1S,2S,5R)-1-hydroxy-N-((2R)-1-hydroxy-3-phenylpropan-2-yl)-2-isopropyl-5-methylcyclohexane-1-carboxamide]: 641 nM and 586 nM.
The matching figures for `COC(=O)CCOc1ccccc1CCNC(=O)[C@]1(O)C[C@H](C)CC[C@H]1C(C)C` [Example 75, methyl 3-(2-(2-((1S,2S,5R)-1-hydroxy-2-isopropyl-5-methylcyclohexane-1-carboxamido)ethyl)phenoxy)propanoate]: 84 nM and 109 nM.
Take `CC(C)[C@@H]1CC[C@@H](C)C[C@@]1(O)C(=O)NCCc1cccc(S(N)(=O)=O)c1` [Example 133, (1S,2S,5R)-1-hydroxy-2-isopropyl-5-methyl-N-[2-(3-sulfamoylphenyl)ethyl]cyclohexanecarboxamide]: the EC50 at human TRPM8 came out at 140 nM; on pig TRPM8 it was 72.2 nM.
Consider `CC(C)[C@@H]1CC[C@@H](C)C[C@@]1(O)C(=O)NCCc1cccc(C(=O)OC[C@H](C)O)c1` [Example 105, (S)-2-hydroxypropyl 3-(2-((1S,2S,5R)-1-hydroxy-2-isopropyl-5-methylcyclohexane-1-carboxamido)ethyl)benzoate], for which the EC50 amounted to 30.8 nM on human TRPM8 and 28.4 nM at pig TRPM8.
As to `CC(=O)NCCOc1ccccc1CCNC(=O)[C@]1(O)C[C@H](C)CC[C@H]1C(C)C` [Example 84, (1S,2S,5R)—N-(2-(2-acetamidoethoxy)phenethyl)-1-hydroxy-2-isopropyl-5-methylcyclohexane-1-carboxamide], the EC50 amounted to 143 nM on human TRPM8 and 141 nM at pig TRPM8.
On to `CC(C)[C@@H]1CC[C@@H](C)C[C@@]1(O)C(=O)NCC(=O)c1ccccc1Cl` [Example 140, (1S,2S,5R)-N-[2-(2-chlorophenyl)-2-oxo-ethyl]-1-hydroxy-2-isopropyl-5-methyl-cyclohexanecarboxamide], for which the EC50 on human TRPM8 turned out to be 9.4 nM; at pig TRPM8 it was 3.3 nM.
For `Cc1[nH]c2ccccc2c1CCNC(=O)[C@]1(O)C[C@H](C)CC[C@H]1C(C)C` [Example 153, (1S,2S,5R)-1-hydroxy-2-isopropyl-5-methyl-N-[2-(2-methyl-1H-indol-3-yl)ethyl]cyclohexanecarboxamide] the same measures were 130 nM and 76 nM.
With `CC(C)[C@@H]1CC[C@@H](C)C[C@@]1(O)C(=O)NCCCc1ccc(O)cc1` [Example 167, (1S,2S,5R)-1-hydroxy-N-[3-(4-hydroxyphenyl)propyl]-2-isopropyl-5-methyl-cyclohexanecarboxamide], the EC50 at human TRPM8 was 58.4 nM; on pig TRPM8 it was 91.8 nM.
